SMILES strings stand for the structures. Calls of active or inactive are those of the source. The rule behind the calls is not given here.

Test [1] concerns MT330. Kind of test: Induction of cell death in human MT330 cells assessed as reduction in cell viability at 2 uM after 3 days by ELISA. It is filed as functional, cell-based. Conditions: time 3.0 day. In general terms: ELISA stands for enzyme-linked immunosorbent assay.
Test [2] has as its system MT330. Nature of the test: Induction of cell death in human MT330 cells assessed as reduction in cell viability at 2 uM combination with TMZ after 3 days by ELISA. It is filed as functional, cell-based. Conditions: time 3.0 day.
The test system of test [3] is LN-229. Kind of test: Antiproliferative activity against human LN-229 cells assessed as reduction in cell viability at 2 uM up to 7 days by incucyte live cell assay. The format is functional, cell-based. Conditions: time <= 7.0 day.
In test [4] the test system is LN-229. Nature of the test: Antiproliferative activity against human LN-229 cells assessed as reduction in cell viability at 2 uM combination with TMZ up to 7 days by incucyte live cell assay. Conditions: time <= 7.0 day. The format is functional, cell-based.
Test [5] relates to MT330. Kind of test: Anti-tumor activity against human MT330 cells xenografted in NSG mouse assessed as reduction in tumor growth at 10 mg/kg, ip for alterate days combination with TMZ and measured after 2 weeks. It is filed as functional, organism-based. (In general: In xenograft studies the graft and the host belong to different species.)
For test [6], the system named is MT330. Kind of test: Anti-tumor activity against human MT330 cells xenografted in NSG mouse assessed as reduction in tumor growth at 10 mg/kg, ip for alterate days combination with TMZ and measured after 8 weeks. It is filed as functional, organism-based.
The test system of test [7] is MT330. Nature of the test: Induction of cell death in human MT330 cells assessed as reduction in cell viability at 50 uM after 3 days by ELISA. It is filed as functional, cell-based. Conditions: time 3.0 day.
For test [8], the system named is LN-229. Nature of the test: Antiproliferative activity against human LN-229 cells assessed as reduction in cell viability at 80 uM up to 7 days by incucyte live cell assay. It is filed as functional, cell-based. Conditions: time <= 7.0 day.
Test [9] addresses SWI/SNF-related matrix-associated actin-dependent regulator of chromatin subfamily A member 4 (Homo sapiens) (UniProt P51532). Kind of test: Binding affinity to epitope-tagged BRG1 bromodomain (unknown origin) expressed in MT330 cells assessed as thermostability at < 54.2 degC at 30 uM for 2 hrs by […]. It is filed as cell-based.

Sequence of SWI/SNF-related matrix-associated actin-dependent regulator of chromatin subfamily A member 4 (Homo sapiens) (P51532 whole entry): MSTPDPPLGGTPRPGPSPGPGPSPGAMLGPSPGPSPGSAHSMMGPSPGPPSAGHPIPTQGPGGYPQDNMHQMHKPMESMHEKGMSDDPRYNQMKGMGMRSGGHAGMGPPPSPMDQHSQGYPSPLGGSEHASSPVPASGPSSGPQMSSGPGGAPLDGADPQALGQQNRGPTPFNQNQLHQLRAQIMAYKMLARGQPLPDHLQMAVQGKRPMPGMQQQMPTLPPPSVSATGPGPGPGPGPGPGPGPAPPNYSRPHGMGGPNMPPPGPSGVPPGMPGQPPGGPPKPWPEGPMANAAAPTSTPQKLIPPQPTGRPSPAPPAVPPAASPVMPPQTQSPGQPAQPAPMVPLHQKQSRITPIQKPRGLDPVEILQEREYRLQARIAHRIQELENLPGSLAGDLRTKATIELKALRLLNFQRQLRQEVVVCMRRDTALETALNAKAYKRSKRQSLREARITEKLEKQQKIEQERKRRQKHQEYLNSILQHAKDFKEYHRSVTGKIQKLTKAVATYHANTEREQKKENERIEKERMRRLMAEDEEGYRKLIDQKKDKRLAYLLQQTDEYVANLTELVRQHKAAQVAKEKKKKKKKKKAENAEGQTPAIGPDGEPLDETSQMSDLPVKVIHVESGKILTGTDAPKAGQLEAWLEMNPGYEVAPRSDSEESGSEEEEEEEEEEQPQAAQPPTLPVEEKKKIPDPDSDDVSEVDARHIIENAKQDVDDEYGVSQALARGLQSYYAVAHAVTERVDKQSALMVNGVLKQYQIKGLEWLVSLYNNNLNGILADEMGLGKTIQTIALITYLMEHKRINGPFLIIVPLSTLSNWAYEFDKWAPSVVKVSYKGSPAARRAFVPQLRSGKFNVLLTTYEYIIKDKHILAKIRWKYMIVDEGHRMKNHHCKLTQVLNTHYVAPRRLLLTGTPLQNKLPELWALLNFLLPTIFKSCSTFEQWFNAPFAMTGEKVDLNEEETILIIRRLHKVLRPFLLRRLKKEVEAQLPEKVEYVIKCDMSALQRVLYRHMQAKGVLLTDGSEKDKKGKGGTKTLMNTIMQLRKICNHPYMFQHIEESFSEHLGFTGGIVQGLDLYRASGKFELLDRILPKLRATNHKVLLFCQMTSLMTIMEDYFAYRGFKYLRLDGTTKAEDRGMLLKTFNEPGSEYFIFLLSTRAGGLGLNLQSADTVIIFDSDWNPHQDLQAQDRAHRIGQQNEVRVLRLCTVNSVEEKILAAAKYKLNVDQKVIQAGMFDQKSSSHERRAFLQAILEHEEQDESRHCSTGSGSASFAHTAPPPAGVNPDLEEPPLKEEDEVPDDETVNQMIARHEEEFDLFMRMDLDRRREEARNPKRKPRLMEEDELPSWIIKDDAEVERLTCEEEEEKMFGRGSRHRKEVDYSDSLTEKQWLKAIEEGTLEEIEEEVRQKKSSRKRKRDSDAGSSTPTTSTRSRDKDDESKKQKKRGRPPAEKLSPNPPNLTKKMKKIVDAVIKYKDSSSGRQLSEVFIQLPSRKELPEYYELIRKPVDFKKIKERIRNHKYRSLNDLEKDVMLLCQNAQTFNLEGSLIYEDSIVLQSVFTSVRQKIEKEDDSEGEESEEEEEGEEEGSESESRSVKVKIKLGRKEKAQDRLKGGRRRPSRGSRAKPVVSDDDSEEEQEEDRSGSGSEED

`O=C(/C=C/N1C[C@H]2C[C@@H]1CN2c1ccccn1)c1cc(Br)ccc1O`: the outcome in the test with MT330 [1] and in the test with MT330 [2] was Active.
As to `O=C(/C=C/N1C[C@H]2C[C@@H]1CN2c1ccccn1)c1ccc(Cl)cc1O`, the outcome in the test on MT330 [1] and in the test on MT330 [2] was Active.
As for `COc1ccc(N2C[C@H]3C[C@@H]2CN3/C=C/C(=O)c2ccccc2Cl)cc1`, the outcome in the test with MT330 [1] and in the test on MT330 [2] was Active.
`COc1ccc(N2C[C@H]3C[C@@H]2CN3/C=C/C(=O)c2cc(F)ccc2O)cc1`: the result in the test with MT330 [1] and in the test on MT330 [2] was Active.
As for `O=C(/C=C/N1C[C@H]2C[C@@H]1CN2c1ccc(F)cc1)c1ccccc1Cl`, the result with MT330 [1] and in the test on MT330 [2] was Active.
`O=C(/C=C/N1C[C@H]2C[C@@H]1CN2c1ccccn1)c1cc(F)ccc1O`: the outcome in the test with MT330 [1] and in the test on MT330 [2] was Active.
Consider `O=C(/C=C/N1C[C@H]2C[C@@H]1CN2c1ccccn1)c1ccccc1Cl`, for which the outcome in the test with MT330 [1] and in the test on MT330 [2] was Active.
Turning to `O=C(/C=C/N1C[C@H]2C[C@@H]1CN2c1ccccn1)c1cc(Br)cc(Br)c1O`, the result with MT330 [1], in the test on MT330 [2], in the test with LN-229 [3] and in the test on LN-229 [4] was Active. For the same compound, the TGI entry in the test on MT330 [5] and in the test with MT330 [6] was “Active” in each case.
For the compound `COc1ccc(N2C[C@H]3C[C@@H]2CN3/C=C/C(=O)c2ccccc2O)cc1`, the outcome in the test on MT330 [1] and in the test on MT330 [2] was Active.
Turning to `O=C(/C=C/N1C[C@H]2C[C@@H]1CN2c1ccc(F)cc1)c1ccccc1`, the result with MT330 [1], with MT330 [2], in the test with LN-229 [3] and with LN-229 [4] was Active. Further, the TGI entry in the test with MT330 [5] and with MT330 [6] was “Active” in each case.
For the compound `Cn1nnc2c(C(N)=O)ncn2c1=O`, the result with MT330 [7] and with LN-229 [8] was Active.
For the compound `O=C(/C=C/N1C[C@H]2C[C@@H]1CN2c1ccc(F)cc1)c1ccccc1O`, the result in the test with MT330 [1] and with MT330 [2] was Active.
In the case of `O=C(/C=C/N1C[C@H]2C[C@@H]1CN2c1ccccn1)c1ccccc1O`, the outcome (with MT330 [1]; with MT330 [2]; in the test with LN-229 [3]; with LN-229 [4]; in [9]) was Active. Besides, the TGI entry in the test on MT330 [5] and in the test on MT330 [6] was “Active” throughout.
In the case of `O=C(/C=C/N1C[C@H]2C[C@@H]1CN2c1ccc(F)cc1)c1cc(F)ccc1O`, the result with MT330 [1] and in the test with MT330 [2] was Active.
